From patent US5646136A, “Methods of inhibiting angiogenesis and tumor growth, and treating ophthalmologic conditions with angiostatic and therapeutic steroids” (Duke University, priority 1994, dated 1997)

Key:
[1] = tested on: glucocorticoid activity; experiment: Glucocorticoid activity (general statements)
[2] = tested on: human pancreatic cancers; experiment: Inhibition of human pancreatic cancers; details: in particular cancers rich in glucocorticoid receptors
[3] = tested on: Kirsten murine sarcoma virus transformed human skin fibroblasts; details: cited from earlier work
[4] = tested on: rat corneas; experiment: Histological study of steroid-treated cauterized corneal tissue; assay type: in vivo; details: 1 percent topical QID
Method: A histological study was performed in which either vehicle or 1 percent compound 2013 (17β-carboxylic acid derivative of prednisolone) was applied topically (QID) to rat corneas cauterized as described in Example 23. Five rats were included in each experimental group. The rats were killed either one or four days after treatment.
Histological sections were prepared through the cautery site.

[5] = tested on: corneal neovascularization; experiment: Corneal angiogenesis inhibition, subcutaneous injection once/day; assay type: in vivo, rat
Method: (§1) The ability of etianic acids to inhibit angiogenesis was evaluated in vivo in rats. Each animal had its corneas cauterized with silver nitrate/potassium nitrate. The cauterization causes the normally avascular cornea to undergo neovascularization (anglogenesis). This animal model, refined by Proia et al., Lab. Invest. 58: 473-479 (1988) and now a well-established assay, quantifies corneal neovascularization by computerized image analysis. […] Ophthalmol. Vis. Science 30: 1588-1593 (1989), and can provide a more definitive evaluation of angiostatic activity than models using the chorioallantoic membrane in the chick egg or the rabbit eye model. See Proia et al., Exp. Eye Res. (in press--to be published in Vol. 57 in 1993).
(§2) Female rats were obtained from Zivic-Miller Laboratories, Zelienople, Pa. There were 6-8 rats included in each treatment group. Neovascularization was induced by cauterizing both corneas of each anesthetized rat; this was performed by applying the tip of a silver nitrate/potassium nitrate to the cornea for 5-7.5 seconds.
(§3) After four days of treatment, the animals were euthanized by rapid asphyxiation in a carbon dioxide chamber. The vasculature was perfused with a mixture of 10 percent india ink/11 percent gelatin/lactated Ringer's solution. Corneal tissue was dissected and prepared as flat mounts. During dissection, the corneas were examined with a dissecting microscope, and the degree of neovascularization was graded numerically from 1+ to 4+. After dehydration with alcohols, cleaning with xylene, mounting, and drying, the area of each cornea and the length of blood vessels were determined by computerized image analysis.
The ability of compounds 2013, 518, and 513 to inhibit corneal angiogenesis when injected subcutaneously once/day to was assessed on rats prepared as described in Example 8. Dexamethasone was used as a positive control.

[6] = tested on: thymus; experiment: Thymus weight of rats treated topically in the corneal angiogenesis study; assay type: in vivo, rat
Method: as §1, §2
(§4) Steroids were formulated in vehicle containing 10 percent Tween 20 (polyoxyethylene sorbitan monolaurate) dissolved in 0.9 percent saline with percent (by volume) 0.2M tris (hydroxymethyl)aminomethane, pH 7.4. The steroids dissolved readily when the pH was adjusted to 7.0-8.0 with NaOH or KOH. All steroids were tested at a concentration of 1 percent; additionally, some formulations were also tested at 0.01 percent, 0.1 percent, and 2.5 percent. Three 10 μl drops of each concentration of steroid were applied topically to each cauterized cornea four times per day (8:00 a.m., noon, 4:00 p.m., and 8:00 p.m.).
as §3

[7] = tested on: Dunning R3327 (PAP) prostatic adenocarcinoma; details: in vitro; cited from earlier work
[8] = tested on: corneal neovascularization; experiment: Inhibition of corneal neovascularization in cauterized rat corneas, topical application four times per day for four days; assay type: in vivo; details: for Neovascularization (percent of the corneal area occupied by blood vessels): mean ± S.D.; for Percent Inhibition of neovascularization: versus vehicle
Method: as §1, §2
The corneal tissues were treated with steroid formulations.
as §4, with “The steroids dissolved readily when the pH was adjusted to 7.0-8.0 with NaOH or KOH.” left out
as §3
Statistical evaluation of inhibition of corneal neovascularization by each concentration of drug was evaluated using Mann Whitney U Tests (one-tailed; P<0.05=significant difference). […] In all cases, however, image analysis was used to quantitatively confirm visual observations.

[9] = Body weight of rats treated topically in the corneal angiogenesis study; assay type: in vivo, rat; details: topical, all concentrations
Method: as §1, §2, §4
as §3, with “Corneal tissue was dissected and prepared as flat mounts. During dissection, the corneas were examined with a dissecting microscope, and the degree of neovascularization was graded numerically from 1+ to 4+.” left out

[10] = tested on: MCF-7 breast cancer; details: in vitro; cited from earlier work

C[C@]12C=C(C(=O)O)C(=O)C=C1CC[C@@H]1[C@@H]2[C@@H](O)C[C@@]2(C)[C@H]1CC[C@]2(C)O [2-carboxyl-11β,17β-dihydroxy-17α-methyl-1,4-androstadien-3-one]
Glucocorticoid activity (in words) [1]: anti-glucocorticoid
Inhibition of human pancreatic cancers (in words) [2]: inhibits certain human pancreatic cancers, and in particular inhibits those cancers rich in glucocorticoid receptors

C[C@]12C=CC(=O)C=C1CC[C@@H]1[C@@H]2[C@@H](O)C[C@@]2(C)[C@H]1CC[C@]2(O)C(=O)O [Compound 2013, 17β-carboxyl-11β,17α-dihydroxy-3-oxo-1,4-androstadiene]
Neodifferentiation into adipose cells (in words) [3]: promotes neodifferentiation
Degree of leukocytic infiltrate versus vehicle (in words) ([4]; 24 or 96 hours post-cautery): no difference in the degree of leukocytic infiltrate
Corneal reepithelialization and neovascularization (in words) ([4]; 24 hours after cautery): Neither corneal reepithelialization nor neovascularization were observed
Corneal reepithelialization (in words) ([4]; 96 hours post-cautery): all corneas were reepithelialized
Neovascularization (histological) ([4]; 96 hours post-cautery): 0.6±0.6
Neovascularization versus vehicle (in words) ([4]; 96 hours post-cautery): marked reduction in neovascularization
Neovasc. ([5]; 10 mg/kg/day subcutaneous): 21.5 ± 6.3%
Neovasc. ([5]; 25 mg/kg/day subcutaneous): 17.1 ± 3.0%
Change in thymus weight (in words) ([6]; topical 0.1 percent): no significant effect on thymus weight
Decrease of thymus weight from control ([6]; topical 1 percent): 27%
Thymus weight ([6]; topical 1 percent, four days): 0.207±0.035 gm
Growth inhibition of Dunning R3327 (PAP) (in words) [7]: inhibits growth of the Dunning R3327 (PAP) prostatic adenocarcinoma
Neovascularization (percent of the corneal area occupied by blood vessels) ([8]; Experiment A, topical 0.01%): 26.2 ± 6.3%
Percent Inhibition of neovascularization ([8]; Experiment A, topical 0.01%): +21%
Neovascularization (percent of the corneal area occupied by blood vessels) ([8]; Experiment A, topical 0.1%): 13.9 ± 7.3%
Percent Inhibition of neovascularization ([8]; Experiment A, topical 0.1%): 36%
Neovascularization (percent of the corneal area occupied by blood vessels) ([8]; Experiment A, topical 1.0%): 9.8 ± 2.0%
Percent Inhibition of neovascularization ([8]; Experiment A, topical 1.0%): 55%
Neovascularization (percent of the corneal area occupied by blood vessels) ([8]; Experiment B, topical 0.01%): 18.3 ± 4.0%
Percent Inhibition of neovascularization ([8]; Experiment B, topical 0.01%): 22%
Neovascularization (percent of the corneal area occupied by blood vessels) ([8]; Experiment B, topical 0.1%): 14.6 ± 6.8%
Percent Inhibition of neovascularization ([8]; Experiment B, topical 0.1%): 38%
Neovascularization (percent of the corneal area occupied by blood vessels) ([8]; Experiment B, topical 1.0%): 16.0 ± 3.6%
Percent Inhibition of neovascularization ([8]; Experiment B, topical 1.0%): 32%
Inhibition of corneal vascularization (significance, in words) ([8]; applied topically): did cause significant inhibition of corneal vascularization
Effect on body weight (in words) [9]: Body weight was unaffected by treatment with any concentration

C[C@]12C=CC(=O)C=C1CC[C@@H]1[C@@H]2[C@@H](O)C[C@@]2(C)[C@H]1CC[C@]2(O)C(=O)NCc1ccccc1 [benzylamide derivative, prednienic acid benzylamide]
Inhibition of MCF-7 breast cancer (in words) [10]: inhibits MCF-7 breast cancer
